Assays:
Mus musculus [1] = assay: Inhibition of JAK2 in HEL 92.1.7 cells xenografted in nude mouse assessed as inhibition of STAT3 phosphorylation at 100 mg/kg, po after 4 hrs relative to vehicle-treated control; format: functional
Cytochrome P450 1A2 = Cytochrome P450 1A2 (Homo sapiens, UniProt P05177); assay: Inhibition of CYP1A2; format: ADME
[2] = Cmax in Beagle dog at 3 mg/kg, iv; format: ADME, organism-based, Canis lupus familiaris; set-up: dose 3 mg/kg, route intravenous; details: in vivo
Mus musculus [3] = assay: Inhibition of JAK2 in HEL 92.1.7 cells xenografted in po dosed nude mouse assessed as inhibition of STAT3 phosphorylation after 4 hrs; format: functional, organism-based
Mus musculus [4] = assay: Inhibition of JAK2 in HEL 92.1.7 cells xenografted in nude mouse assessed as inhibition of STAT1 phosphorylation at 30 mg/kg, po after 4 hrs relative to vehicle-treated control; format: functional
[5] = Cmax in cynomolgus monkey at 3 mg/kg, po; format: ADME, organism-based, Macaca fascicularis; set-up: dose 3 mg/kg, route oral; details: in vivo
[6] = target: Vascular endothelial growth factor receptor 3 (Homo sapiens, UniProt P35916); assay: Inhibition of FLT4
[7] = target: Ribosomal protein S6 kinase beta-1 (Homo sapiens, UniProt P23443); assay: Inhibition of P70S6K
Mus musculus [8] = assay: Inhibition of JAK2 in HEL 92.1.7 cells xenografted in nude mouse assessed as inhibition of STAT3 phosphorylation at 30 mg/kg, po after 4 hrs relative to vehicle-treated control; format: functional
Cynomolgus monkey [9] = assay: Dose normalized AUC in cynomolgus monkey at 3 mg/kg, po; format: ADME, organism-based, Macaca fascicularis; set-up: dose 3 mg/kg, route oral; details: in vivo
[10] = Half life in Beagle dog at 3 mg/kg, po; format: ADME, organism-based, Canis lupus familiaris; set-up: dose 3 mg/kg, route oral; details: in vivo
Canis familiaris = assay: Volume of distribution in Beagle dog at 3 mg/kg, po and iv; format: ADME, organism-based, Canis lupus familiaris; set-up: dose 3 mg/kg, route oral; details: in vivo
HEL [11] = assay: Induction of apoptosis in HEL 92.1.7 cells xenografted in nude mouse at 300 mg/kg, po bid relative to vehicle-treated control; format: functional, Homo sapiens
[12] = Drug uptake in nude mouse xenografted with HEL 92.1.7 cells at 100 mg/kg, po after 4 hrs; format: ADME, organism-based; set-up: dose 100 mg/kg, route oral; details: in vivo, read-out: Drug uptake
Mus musculus [13] = assay: Dose normalized AUC in athymic nude mouse at 10 mg/kg, iv; format: ADME, organism-based; set-up: dose 10 mg/kg, route intravenous; details: in vivo
[14] = target: Vascular endothelial growth factor receptor 1 (Homo sapiens, UniProt P17948); assay: Inhibition of FLT1
[15] = Half life in athymic nude mouse at 10 mg/kg, iv; format: ADME, organism-based; set-up: dose 10 mg/kg, route intravenous; details: in vivo
[16] = target: Inhibitor of nuclear factor kappa-B kinase subunit beta (Homo sapiens, UniProt O14920); assay: Inhibition of IKKbeta
[17] = Drug uptake in nude mouse xenografted with HEL 92.1.7 cells at 300 mg/kg, po after 4 hrs; format: ADME, organism-based; set-up: dose 300 mg/kg, route oral; details: in vivo, read-out: Drug uptake
Cynomolgus monkey [18] = assay: Volume of distribution in cynomolgus monkey at 3 mg/kg, po and iv; format: ADME, organism-based, Macaca fascicularis; set-up: dose 3 mg/kg, route oral; details: in vivo
Mus musculus [19] = assay: Dose normalized AUC in athymic nude mouse at 10 mg/kg, po; format: ADME, organism-based; set-up: dose 10 mg/kg, route oral; details: in vivo
[20] = Oral bioavailability in Beagle dog at 3 mg/kg; format: ADME, organism-based, Canis lupus familiaris; details: in vivo
[21] = Cmax in athymic nude mouse at 10 mg/kg, iv; format: ADME, organism-based; set-up: dose 10 mg/kg, route intravenous; details: in vivo
[22] = target: Mast/stem cell growth factor receptor Kit (Homo sapiens, UniProt P10721); assay: Inhibition of c-KIT
[23] = Half life in cynomolgus monkey at 3 mg/kg, po; format: ADME, organism-based, Macaca fascicularis; set-up: dose 3 mg/kg, route oral; details: in vivo
Rattus norvegicus [24] = assay: Dose normalized AUC in CD rat at 5 mg/kg, iv; format: ADME, organism-based; set-up: dose 5 mg/kg, route intravenous; details: in vivo
Mus musculus [25] = assay: Inhibition of JAK2 in HEL 92.1.7 cells xenografted in nude mouse assessed as inhibition of STAT1 phosphorylation at 100 mg/kg, po after 4 hrs relative to vehicle-treated control; format: functional
[26] = Cmax in cynomolgus monkey at 3 mg/kg, iv; format: ADME, organism-based, Macaca fascicularis; set-up: dose 3 mg/kg, route intravenous; details: in vivo
HEL [27] = assay: Anitumour activity against HEL 92.1.7 cells xenografted in nude mouse assessed as tumor growth inhibition at 200 mg/kg, po bid administered up to 14 days relative to vehicle-treated control; format: functional, Homo sapiens; details: 336 h, read-out: TGI
[28] = Cmax in Beagle dog at 3 mg/kg, po; format: ADME, organism-based, Canis lupus familiaris; set-up: dose 3 mg/kg, route oral; details: in vivo
[29] = Half life in cynomolgus monkey at 3 mg/kg, iv; format: ADME, organism-based, Macaca fascicularis; set-up: dose 3 mg/kg, route intravenous; details: in vivo
[30] = target: T1, Tyrosine-protein kinase JAK3 (Homo sapiens, UniProt P52333)
T1 sequence (P52333 whole entry): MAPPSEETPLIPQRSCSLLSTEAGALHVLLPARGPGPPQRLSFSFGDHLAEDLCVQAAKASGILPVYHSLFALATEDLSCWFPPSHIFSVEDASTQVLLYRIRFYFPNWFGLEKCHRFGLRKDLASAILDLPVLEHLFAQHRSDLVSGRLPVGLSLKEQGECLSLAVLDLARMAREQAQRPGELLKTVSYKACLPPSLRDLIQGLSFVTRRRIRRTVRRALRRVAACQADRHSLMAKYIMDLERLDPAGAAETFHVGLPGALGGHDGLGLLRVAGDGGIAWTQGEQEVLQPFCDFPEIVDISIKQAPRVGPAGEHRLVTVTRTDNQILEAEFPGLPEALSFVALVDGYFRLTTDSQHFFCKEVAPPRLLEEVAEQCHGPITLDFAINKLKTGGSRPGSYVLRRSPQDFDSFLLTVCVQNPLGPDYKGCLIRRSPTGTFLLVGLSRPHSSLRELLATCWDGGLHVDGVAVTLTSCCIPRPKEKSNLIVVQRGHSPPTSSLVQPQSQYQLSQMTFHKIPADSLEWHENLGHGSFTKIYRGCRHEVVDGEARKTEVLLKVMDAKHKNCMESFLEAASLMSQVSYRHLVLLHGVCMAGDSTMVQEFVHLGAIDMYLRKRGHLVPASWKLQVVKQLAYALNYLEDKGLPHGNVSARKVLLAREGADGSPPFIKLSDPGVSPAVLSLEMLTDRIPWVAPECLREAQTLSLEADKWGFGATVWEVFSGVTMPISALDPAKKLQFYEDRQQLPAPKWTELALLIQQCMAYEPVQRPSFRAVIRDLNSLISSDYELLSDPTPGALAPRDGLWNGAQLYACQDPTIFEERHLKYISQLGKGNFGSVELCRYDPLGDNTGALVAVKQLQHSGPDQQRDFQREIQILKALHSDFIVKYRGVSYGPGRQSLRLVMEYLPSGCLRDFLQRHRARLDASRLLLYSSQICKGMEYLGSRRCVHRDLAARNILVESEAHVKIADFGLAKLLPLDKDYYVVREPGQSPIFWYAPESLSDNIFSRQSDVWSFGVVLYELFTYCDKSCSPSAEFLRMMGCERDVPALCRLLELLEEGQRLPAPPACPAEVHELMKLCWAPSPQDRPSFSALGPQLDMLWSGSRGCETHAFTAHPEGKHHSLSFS

[31] = Half life in CD rat at 5 mg/kg, iv; format: ADME, organism-based; set-up: dose 5 mg/kg, route intravenous; details: in vivo
[32] = target: Platelet-derived growth factor receptor beta (Homo sapiens, UniProt P09619); assay: Inhibition of PDGFRB
[33] = target: Receptor-type tyrosine-protein kinase FLT3 (Homo sapiens, UniProt P36888); assay: Inhibition of FLT3
Rattus norvegicus [34] = assay: Volume of distribution in CD rat at 5 mg/kg, po and iv; format: ADME, organism-based; set-up: dose 5 mg/kg, route oral; details: in vivo

Sequence of Mast/stem cell growth factor receptor Kit (P10721 whole entry): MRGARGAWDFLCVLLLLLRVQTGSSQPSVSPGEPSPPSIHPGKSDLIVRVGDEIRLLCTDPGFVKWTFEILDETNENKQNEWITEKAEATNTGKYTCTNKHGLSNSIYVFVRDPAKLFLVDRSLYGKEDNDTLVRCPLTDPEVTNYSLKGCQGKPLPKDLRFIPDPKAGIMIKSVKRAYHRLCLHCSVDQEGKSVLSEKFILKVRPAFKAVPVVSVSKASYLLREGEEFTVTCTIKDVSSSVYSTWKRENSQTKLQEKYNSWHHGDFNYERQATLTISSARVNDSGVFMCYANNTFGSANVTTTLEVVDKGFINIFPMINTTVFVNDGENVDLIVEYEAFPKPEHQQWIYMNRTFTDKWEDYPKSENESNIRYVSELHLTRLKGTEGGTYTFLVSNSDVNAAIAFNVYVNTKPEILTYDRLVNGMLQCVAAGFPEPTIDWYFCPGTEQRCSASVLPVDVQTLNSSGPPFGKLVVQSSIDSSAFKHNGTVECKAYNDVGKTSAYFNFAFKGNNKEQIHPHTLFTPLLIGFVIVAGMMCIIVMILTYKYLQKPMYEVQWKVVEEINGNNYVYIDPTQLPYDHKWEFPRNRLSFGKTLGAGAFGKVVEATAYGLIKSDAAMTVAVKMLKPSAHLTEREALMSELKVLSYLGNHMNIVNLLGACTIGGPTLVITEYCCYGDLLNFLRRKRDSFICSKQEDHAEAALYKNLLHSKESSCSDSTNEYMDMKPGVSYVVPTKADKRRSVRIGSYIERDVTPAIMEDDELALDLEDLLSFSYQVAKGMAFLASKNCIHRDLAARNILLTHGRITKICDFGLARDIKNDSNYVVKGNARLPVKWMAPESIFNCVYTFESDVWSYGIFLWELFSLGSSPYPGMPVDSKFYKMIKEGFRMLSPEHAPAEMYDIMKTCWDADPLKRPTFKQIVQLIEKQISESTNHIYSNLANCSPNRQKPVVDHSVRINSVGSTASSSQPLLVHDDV
Sequence of Platelet-derived growth factor receptor beta (P09619 whole entry): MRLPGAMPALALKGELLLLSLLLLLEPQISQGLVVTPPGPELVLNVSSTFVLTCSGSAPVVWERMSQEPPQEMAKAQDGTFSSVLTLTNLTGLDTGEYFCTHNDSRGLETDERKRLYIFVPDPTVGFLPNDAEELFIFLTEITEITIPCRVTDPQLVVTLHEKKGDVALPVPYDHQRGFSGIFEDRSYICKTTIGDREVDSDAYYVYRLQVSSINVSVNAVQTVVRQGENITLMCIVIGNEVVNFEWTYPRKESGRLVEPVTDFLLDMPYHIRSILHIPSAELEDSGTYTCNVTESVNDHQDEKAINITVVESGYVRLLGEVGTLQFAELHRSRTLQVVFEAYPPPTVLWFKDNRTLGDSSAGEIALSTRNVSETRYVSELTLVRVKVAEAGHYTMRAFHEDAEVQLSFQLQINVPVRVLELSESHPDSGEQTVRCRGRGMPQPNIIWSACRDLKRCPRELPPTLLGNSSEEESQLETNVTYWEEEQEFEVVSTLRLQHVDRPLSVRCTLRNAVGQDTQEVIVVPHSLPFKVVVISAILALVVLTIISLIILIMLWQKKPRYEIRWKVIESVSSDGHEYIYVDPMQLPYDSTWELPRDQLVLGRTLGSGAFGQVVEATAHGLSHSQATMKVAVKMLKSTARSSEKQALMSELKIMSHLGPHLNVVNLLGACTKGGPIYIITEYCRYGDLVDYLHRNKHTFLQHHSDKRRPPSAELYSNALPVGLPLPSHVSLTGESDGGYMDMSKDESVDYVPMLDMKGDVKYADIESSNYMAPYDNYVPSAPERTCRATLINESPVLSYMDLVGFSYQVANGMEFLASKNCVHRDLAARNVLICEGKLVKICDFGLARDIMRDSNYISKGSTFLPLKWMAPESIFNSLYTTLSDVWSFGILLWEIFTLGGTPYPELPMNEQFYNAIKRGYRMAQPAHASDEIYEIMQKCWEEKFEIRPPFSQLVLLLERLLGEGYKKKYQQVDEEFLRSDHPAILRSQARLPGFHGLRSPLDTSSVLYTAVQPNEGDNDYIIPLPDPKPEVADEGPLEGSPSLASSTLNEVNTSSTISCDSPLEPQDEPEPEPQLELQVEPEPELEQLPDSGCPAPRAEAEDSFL
Sequence of Vascular endothelial growth factor receptor 3 (P35916 whole entry): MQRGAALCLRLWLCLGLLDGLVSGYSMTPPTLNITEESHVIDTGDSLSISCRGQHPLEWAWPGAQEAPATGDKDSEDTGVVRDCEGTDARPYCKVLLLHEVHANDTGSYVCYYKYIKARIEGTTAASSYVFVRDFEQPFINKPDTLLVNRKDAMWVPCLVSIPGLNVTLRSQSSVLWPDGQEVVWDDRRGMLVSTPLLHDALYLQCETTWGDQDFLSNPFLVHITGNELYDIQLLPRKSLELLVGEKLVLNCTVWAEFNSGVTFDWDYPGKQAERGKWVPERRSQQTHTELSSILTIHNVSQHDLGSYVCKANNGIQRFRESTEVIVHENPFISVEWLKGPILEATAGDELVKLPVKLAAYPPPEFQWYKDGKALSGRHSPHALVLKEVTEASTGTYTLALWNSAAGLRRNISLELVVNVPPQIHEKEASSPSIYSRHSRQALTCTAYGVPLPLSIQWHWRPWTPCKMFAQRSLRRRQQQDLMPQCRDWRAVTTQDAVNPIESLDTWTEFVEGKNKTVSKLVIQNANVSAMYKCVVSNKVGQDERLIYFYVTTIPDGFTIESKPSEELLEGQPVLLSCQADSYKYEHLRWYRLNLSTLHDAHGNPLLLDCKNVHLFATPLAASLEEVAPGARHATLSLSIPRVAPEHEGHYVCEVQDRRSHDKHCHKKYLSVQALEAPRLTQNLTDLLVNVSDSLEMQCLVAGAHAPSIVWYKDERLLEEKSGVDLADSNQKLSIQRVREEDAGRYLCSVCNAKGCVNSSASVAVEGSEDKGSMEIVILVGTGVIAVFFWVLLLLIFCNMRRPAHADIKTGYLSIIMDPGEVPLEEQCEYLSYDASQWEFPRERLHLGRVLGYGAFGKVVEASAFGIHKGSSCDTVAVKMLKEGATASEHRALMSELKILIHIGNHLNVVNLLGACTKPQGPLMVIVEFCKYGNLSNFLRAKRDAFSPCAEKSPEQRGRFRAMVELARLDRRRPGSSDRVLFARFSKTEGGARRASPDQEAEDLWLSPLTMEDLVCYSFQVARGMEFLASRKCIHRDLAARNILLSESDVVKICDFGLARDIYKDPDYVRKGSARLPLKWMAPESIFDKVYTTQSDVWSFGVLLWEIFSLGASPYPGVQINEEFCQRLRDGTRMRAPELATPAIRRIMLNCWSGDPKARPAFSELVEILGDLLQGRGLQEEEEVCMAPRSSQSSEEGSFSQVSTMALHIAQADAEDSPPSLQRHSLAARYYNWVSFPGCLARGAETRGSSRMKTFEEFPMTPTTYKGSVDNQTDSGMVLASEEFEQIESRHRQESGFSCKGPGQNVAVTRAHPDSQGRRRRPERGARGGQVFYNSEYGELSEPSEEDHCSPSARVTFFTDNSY
Sequence of Ribosomal protein S6 kinase beta-1 (P23443 whole entry): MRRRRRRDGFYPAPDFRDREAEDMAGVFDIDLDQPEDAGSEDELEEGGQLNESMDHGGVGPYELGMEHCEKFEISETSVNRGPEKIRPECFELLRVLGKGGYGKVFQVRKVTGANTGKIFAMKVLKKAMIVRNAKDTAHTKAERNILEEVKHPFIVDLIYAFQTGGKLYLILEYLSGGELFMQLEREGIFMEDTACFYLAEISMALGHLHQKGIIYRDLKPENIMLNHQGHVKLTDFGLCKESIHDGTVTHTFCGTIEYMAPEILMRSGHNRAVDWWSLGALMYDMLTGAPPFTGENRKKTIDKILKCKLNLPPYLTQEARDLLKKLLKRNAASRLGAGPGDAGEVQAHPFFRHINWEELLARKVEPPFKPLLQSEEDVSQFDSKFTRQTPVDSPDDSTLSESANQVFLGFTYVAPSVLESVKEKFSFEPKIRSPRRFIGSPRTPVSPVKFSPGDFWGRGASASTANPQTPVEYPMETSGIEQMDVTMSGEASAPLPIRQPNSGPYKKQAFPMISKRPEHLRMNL
Sequence of Cytochrome P450 1A2 (P05177 whole entry): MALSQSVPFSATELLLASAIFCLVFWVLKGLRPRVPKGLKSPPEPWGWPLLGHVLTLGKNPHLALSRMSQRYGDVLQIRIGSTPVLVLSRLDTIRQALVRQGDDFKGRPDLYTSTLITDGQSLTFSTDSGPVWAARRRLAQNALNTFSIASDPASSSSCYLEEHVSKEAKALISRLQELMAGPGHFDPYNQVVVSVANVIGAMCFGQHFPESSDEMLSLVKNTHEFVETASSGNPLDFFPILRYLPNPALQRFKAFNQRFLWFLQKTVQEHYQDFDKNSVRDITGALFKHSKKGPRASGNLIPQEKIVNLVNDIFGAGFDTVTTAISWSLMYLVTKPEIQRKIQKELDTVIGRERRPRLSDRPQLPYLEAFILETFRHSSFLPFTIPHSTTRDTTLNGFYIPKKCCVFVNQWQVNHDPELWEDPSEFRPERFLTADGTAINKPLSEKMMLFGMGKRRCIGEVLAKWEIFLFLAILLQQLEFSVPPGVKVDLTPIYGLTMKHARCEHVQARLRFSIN

O=C(Nc1ccc(-c2ccnc(Nc3ccc(N4CCOCC4)cc3)n2)cc1)[C@H]1CCCN1
inhibition in vivo at 100 mg/kg (Mus musculus [1]): 40% | INH (Cytochrome P450 1A2): >= 20 uM | Cmax [2]: 440 nM | IC50 (Mus musculus [3]): 13000 nM | ED50 (Mus musculus [3]; po): 210 mg/kg | inhibition in vivo at 30 mg/kg (Mus musculus [4]): 41% | Cmax [5]: 490 nM | IC50 [6]: 555 nM | IC50 [7]: 314 nM | inhibition in vivo at 30 mg/kg (Mus musculus [8]): 9% | AUC/dose (Cynomolgus monkey [9]): 1.2 µM·kg·h/mg | half-life [10]: 5.06 h | Vd (Canis familiaris): 13.4 L/kg | fold change (FC) (HEL [11]): 11.3 | concentration at 4 h [12]: 240000 nM | AUC/dose (Mus musculus [13]): 0.42 µM·kg·h/mg | IC50 [14]: 910 nM | half-life [15]: 1.13 h | IC50 [16]: 375 nM | concentration at 4 h [17]: 62400 nM | Vd (Cynomolgus monkey [18]): 6.739 L/kg | AUC/dose (Mus musculus [19]): 0.21 µM·kg·h/mg | bioavailability [20]: 44.8% | Cmax [21]: 5240 nM | IC50 [22]: 226 nM | half-life [23]: 3.36 h | AUC/dose (Rattus norvegicus [24]): 15.99 µM·kg·h/mg | inhibition in vivo at 100 mg/kg (Mus musculus [25]): 72% | Cmax [26]: 640 nM | inhibition in vivo at 200 mg/kg (HEL [27]): 60% | Cmax [28]: 170 nM | half-life [29]: 3.28 h | IC50 [30]: 214 nM | half-life [31]: 3.12 h | IC50 [32]: 125 nM | IC50 [33]: 140 nM | Vd (Rattus norvegicus [34]): 0.666 L/kg

Reference: ChEMBL document CHEMBL2203210, “SAR and in vivo evaluation of 4-aryl-2-aminoalkylpyrimidines as potent and selective Janus kinase 2 (JAK2) inhibitors” (Bioorg Med Chem Lett, 2012)
